Laboratory results as given in patent US20260001914A1, “MACROCYCLIC PEPTIDES TARGETING KRAS” (Merck Sharp & Dohme LLC, priority 2022, published 2026).
*1 amine or outer side, *2 acyl side, *3 side chain or, on linkers, in order; H or OH if unused. Where a SMILES comes first, the peptide text is derived from it. Bridges are numbered along the chain shown (N, C = ends). [ ]: non-standard residue; d: D form. The star is where a group is joined. X34 = O=C(C[C@@H](Cc1ccccc1)C(=O)[*:2])C12CC(CN[*:1])(C1)C2; NMeNva(5-imidazol-1-yl) = CN[C@@H](CCCn1ccnc1)C(=O)O; Phe(4-guanidino) = N=C(N)Nc1ccc(C[C@H](N)C(=O)O)cc1; X18 = CNC(=N)N(C)c1ccc(C[C@H](N[*:1])C(=O)[*:2])cc1; X59 = O=C([C@H](Cc1ccc(CN2CCCC2)cc1)N[*:1])[*:2]; Ala(pyrimidin-5-yl) = N[C@@H](Cc1cncnc1)C(=O)O; NMe3Pal(6-Me) = CN[C@@H](Cc1ccc(C)nc1)C(=O)O; NMe3Pal(5-F) = CN[C@@H](Cc1cncc(F)c1)C(=O)O; NMePhe(3-Me) = CN[C@@H](Cc1cccc(C)c1)C(=O)O; X43 = CN([C@@H](Cc1cnccc1F)C(=O)[*:2])[*:1]; X24 = O=C([C@H](Cc1ccncc1Cl)N[*:1])[*:2]; X11 = CC(C)(F)CC[C@H](N[*:1])C(=O)[*:2]; X13 = O=C([C@H](Cc1ccncc1F)N[*:1])[*:2]; Nle(5,5-F2) = CC(F)(F)CC[C@H](N)C(=O)O; Phe(3-F) = N[C@@H](Cc1cccc(F)c1)C(=O)O; X61 = O=C(C12COC(CN[*:1])(C1)C2)[*:2]; Ala(cPent) = N[C@@H](CC1CCCC1)C(=O)O; Phe(2-F) = N[C@@H](Cc1ccccc1F)C(=O)O; Abu(4,4-F2) = N[C@@H](CC(F)F)C(=O)O; NMe3Pal = CN[C@@H](Cc1cccnc1)C(=O)O; X1 = O=C(C12CC(CN[*:1])(C1)C2)[*:2]; NMeCha = CN[C@@H](CC1CCCCC1)C(=O)O; X17 = O=C([C@H](CCCCF)N[*:1])[*:2]; Aha = [N-]=[N+]=NCC[C@H](N)C(=O)O; NMeOrn(Me) = CNCCC[C@H](NC)C(=O)O; Ala(cPr) = N[C@@H](CC1CC1)C(=O)O; NMeF = CN[C@@H](Cc1ccccc1)C(=O)O; PhLac = O=C(O)[C@@H](O)Cc1ccccc1; X4 = O=C([C@H](CCCF)N[*:1])[*:2]; 3Pal = N[C@@H](Cc1cccnc1)C(=O)O; d3Pal = N[C@H](Cc1cccnc1)C(=O)O; Ahp(2) = CCCCC[C@H](N)C(=O)O; Cba = N[C@@H](CC1CCC1)C(=O)O; NMeNle = CCCC[C@H](NC)C(=O)O; hLeu = CC(C)CC[C@H](N)C(=O)O; αMeC = C[C@](N)(CS)C(=O)O; NMeA = CN[C@@H](C)C(=O)O; Nle = CCCC[C@H](N)C(=O)O; CHF2 = FC(F)*

Target: KRAS-G12D protein (Homo sapiens, UniProt P01116, G12D)
Sequence (P01116 1-188 isoform P01116-2 G12D): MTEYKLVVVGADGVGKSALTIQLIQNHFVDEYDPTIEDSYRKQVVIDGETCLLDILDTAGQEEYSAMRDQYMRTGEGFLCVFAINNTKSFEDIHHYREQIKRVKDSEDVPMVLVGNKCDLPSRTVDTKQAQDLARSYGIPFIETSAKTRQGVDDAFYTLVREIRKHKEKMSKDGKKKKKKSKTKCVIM
Assay: SOS-mediated nucleotide exchange assay (BODIPY-GDP / Tb-streptavidin TR-FRET)
Assay type: biochemical

Row | Compound | EC50 [nM]
1 | CCCC[C@@H]1NC(=O)[C@H](Cc2ccccc2F)NC(=O)[C@H](CC2CCCC2)NC(=O)[C@H](Cc2cncnc2)NC(=O)[C@H](C)N(C)C(=O)[C@H](Cc2ccccc2)OC(=O)C23CC(CNC(=O)[C@H](Cc4cccnc4)N(C)C1=O)(C2)C3 [compound 126, cyclo(FLac-NMeA-PyrimAla-cPeA-Phe2F-Nle-NMe3Pal-amBCP)] (cyclo([Ala(cPent)][Phe(2-F)][Nle][NMe3Pal][X1][PhLac][NMeA][Ala(pyrimidin-5-yl)])) | 22.3
2 | CC(C)CC[C@@H]1NC(=O)[C@H](Cc2cccc(F)c2)NC(=O)[C@H](CC2CCC2)NC(=O)[C@H](Cc2cncnc2)NC(=O)[C@H](C)N(C)C(=O)[C@H](Cc2ccccc2)OC(=O)C23CC(CNC(=O)[C@H](Cc4ccccc4)N(C)C1=O)(C2)C3 [compound 303, cyclo(FLac-NMeA-PyrimAla-cBuA-Phe3F-hL-NMeF-amBCP)] (cyclo([Cba][Phe(3-F)][hLeu][NMeF][X1][PhLac][NMeA][Ala(pyrimidin-5-yl)])) | 60.9
3 | Cc1cccc(C[C@H]2C(=O)NCC34CC(C3)(C4)C(=O)O[C@@H](Cc3ccccc3)C(=O)N(C)[C@@H](C)C(=O)N[C@@H](Cc3cncnc3)C(=O)N[C@@H](CC3CC3)C(=O)N[C@@H](Cc3ccncc3F)C(=O)N[C@@H](CCC(C)C)C(=O)N2C)c1 [compound 279, cyclo(FLac-NMeA-PyrimAla-cPrA-4Pal2F-hL-NMePhe3Me-amBCP)] (cyclo([Ala(cPr)][X13][hLeu][NMePhe(3-Me)][X1][PhLac][NMeA][Ala(pyrimidin-5-yl)])) | 3
4 | CCCC[C@@H]1NC(=O)[C@H](Cc2cccnc2)NC(=O)[C@H](C)N(C)C(=O)[C@H](Cc2ccccc2)OC(=O)C23CC(CNC(=O)[C@H](CC4CCCCC4)N(C)C(=O)[C@H](CCCC)NC(=O)[C@H](Cc4ccccc4F)NC1=O)(C2)C3 [compound 232, cyclo(FLac-NMeA-3Pal-Nle-Phe2F-Nle-NMeCha-amBCP)] (cyclo([3Pal][Nle][Phe(2-F)][Nle][NMeCha][X1][PhLac][NMeA])) | 2930
5 | CCCC[C@@H]1NC(=O)[C@H](Cc2ccc(OC(F)F)cc2)NC(=O)[C@H](C)N(C)C(=O)[C@H](Cc2ccccc2)OC(=O)C23CC(CNC(=O)[C@H](Cc4ccccc4)N(C)C(=O)[C@H](CCCC)NC(=O)[C@H](Cc4ccccc4F)NC1=O)(C2)C3 [compound 312, cyclo(FLac-NMeA-TyrOCF2-Nle-Phe2F-Nle-NMeF-amBCP)] (cyclo([NMeA]Y(CHF2)[Nle][Phe(2-F)][Nle][NMeF][X1][PhLac])) | 966
6 | CCCCC[C@@H]1NC(=O)[C@H](Cc2ccc(OC)cc2)NC(=O)[C@H](CC2CCC2)NC(=O)[C@H](Cc2cncnc2)NC(=O)[C@H](CCCNC(=N)N)NC(=O)[C@H](Cc2ccccc2)NC(=O)CSC[C@@](C)(C(N)=O)NC(=O)[C@H](Cc2ccccc2)N(C)C1=O [compound 367, cyclo(F-R-PyrimAla-cBuA-TyrOMe-Ahp-NMeF-aMeCl-ClAc)] ({CH2CO}-FR[Ala(pyrimidin-5-yl)][Cba]Y(Me)[Ahp(2)][NMeF][αMeC]-NH2; thioether N-8) | 4.05
7 | CCCC[C@@H]1NC(=O)[C@H](Cc2ccccc2F)NC(=O)[C@H](CC2CCC2)NC(=O)[C@@H](Cc2cccnc2)NC(=O)[C@H](CCCNC(=N)N)NC(=O)[C@H](Cc2ccccc2)NC(=O)C23COC(CNC(=O)[C@H](Cc4cccnc4)N(C)C1=O)(C2)C3 [compound 106, cyclo(F-R-d3Pal-cBuA-Phe2F-Nle-NMe3Pal-amOBCH)] (cyclo(FR[d3Pal][Cba][Phe(2-F)][Nle][NMe3Pal][X61])) | 6820
8 | C[C@H]1C(=O)N[C@@H](Cc2cncnc2)C(=O)N[C@@H](CC2CC2)C(=O)N[C@@H](Cc2ccncc2Cl)C(=O)N[C@@H](CCC(C)(C)F)C(=O)N(C)[C@@H](Cc2ccccc2)C(=O)NCC23CC(C2)(C3)C(=O)O[C@@H](Cc2ccccc2)C(=O)N1C [compound 299, cyclo(FLac-NMeA-PyrimAla-cPrA-4Pal2Cl-hL3F-NMeF-amBCP)] (cyclo([Ala(cPr)][X24][X11][NMeF][X1][PhLac][NMeA][Ala(pyrimidin-5-yl)])) | 6.3
9 | CCCC[C@@H]1NC(=O)[C@H](Cc2ccc(N(C)C(=N)NC)cc2)NC(=O)[C@H](C)N(C)C(=O)[C@H](Cc2ccccc2)OC(=O)CSC[C@@](C)(C(N)=O)NC(=O)[C@H](Cc2cccnc2)N(C)C(=O)[C@H](CCCC)NC(=O)[C@H](Cc2ccccc2F)NC1=O [compound 397, cyclo(FLac-NMeA-Phe4GnMeMe-Nle-Phe2F-Nle-NMe3Pal-aMeCl-ClAc)] ({CH2CO}-[PhLac][NMeA][X18][Nle][Phe(2-F)][Nle][NMe3Pal][αMeC]-NH2; thioether N-8) | 2.73
10 | C[C@H]1C(=O)N[C@@H](Cc2cccnc2)C(=O)N[C@@H](CC2CC2)C(=O)N[C@@H](Cc2ccccc2F)C(=O)N[C@@H](CCC(C)(C)F)C(=O)N(C)[C@@H](Cc2cncc(F)c2)C(=O)NCC23CC(C2)(C3)C(=O)O[C@@H](Cc2ccccc2)C(=O)N1C [compound 284, cyclo(FLac-NMeA-3Pal-cPrA-Phe2F-hL3F-NMe3Pal5F-amBCP)] (cyclo([3Pal][Ala(cPr)][Phe(2-F)][X11][NMe3Pal(5-F)][X1][PhLac][NMeA])) | 2
11 | CCCC[C@@H]1NC(=O)[C@H](Cc2ccc(CN3CCCC3)cc2)NC(=O)[C@H](CCCn2ccnc2)N(C)C(=O)[C@H](Cc2ccccc2)N(C)C(=O)C23CC(CNC(=O)[C@H](Cc4cccnc4)N(C)C(=O)[C@H](CCCC)NC(=O)[C@H](Cc4ccccc4F)NC1=O)(C2)C3 [compound 259, cyclo(NMeF-NMeNvalmid-Phe4cPyrr-Nle-Phe2F-Nle-NMe3Pal-amBCP)] (cyclo([NMe3Pal][X1][NMeF][NMeNva(5-imidazol-1-yl)][X59][Nle][Phe(2-F)][Nle])) | 3220
12 | CC(C)CC[C@@H]1NC(=O)[C@H](Cc2ccccc2F)NC(=O)[C@H](CC(F)F)NC(=O)[C@H](Cc2cncnc2)NC(=O)[C@H](C)N(C)C(=O)[C@H](Cc2ccccc2)OC(=O)C23CC(CNC(=O)[C@H](Cc4ccccc4)N(C)C1=O)(C2)C3 [compound 304, cyclo(FLac-NMeA-PyrimAla-AbuF2-Phe2F-hL-NMeF-amBCP)] (cyclo([NMeA][Ala(pyrimidin-5-yl)][Abu(4,4-F2)][Phe(2-F)][hLeu][NMeF][X1][PhLac])) | 17.2
13 | CCCC[C@@H]1NC(=O)[C@H](Cc2ccccc2F)NC(=O)[C@H](CCN=[N+]=[N-])NC(=O)[C@H](Cc2cccnc2)NC(=O)[C@H](CCCC)N(C)C(=O)[C@H](Cc2ccccc2)OC(=O)C23CC(CNC(=O)[C@H](Cc4cccnc4)N(C)C1=O)(C2)C3 [compound 243, cyclo(FLac-NMeNle-3Pal-DabN3-Phe2F-Nle-NMe3Pal-amBCP)] (cyclo([3Pal][Aha][Phe(2-F)][Nle][NMe3Pal][X1][PhLac][NMeNle])) | 3060
14 | CC(C)CC[C@@H]1NC(=O)[C@H](Cc2ccccc2F)NC(=O)[C@H](CC2CC2)NC(=O)[C@H](Cc2cncnc2)NC(=O)[C@H](C)N(C)C(=O)[C@H](Cc2ccccc2)OC(=O)C23CC(CNC(=O)[C@H](Cc4cnccc4F)N(C)C1=O)(C2)C3 [compound 338, cyclo(FLac-NMeA-PyrimAla-cPrA-Phe2F-hL-NMe3Pal6F-amBCP)] (cyclo([Ala(cPr)][Phe(2-F)][hLeu][X43][X1][PhLac][NMeA][Ala(pyrimidin-5-yl)])) | 2
15 | C[C@H]1C(=O)N[C@@H](Cc2cncnc2)C(=O)N[C@@H](CCCCF)C(=O)N[C@@H](Cc2ccccc2F)C(=O)N[C@@H](CCCCF)C(=O)N(C)[C@@H](Cc2ccccc2)C(=O)NCC23CC(C2)(C3)C(=O)O[C@@H](Cc2ccccc2)C(=O)N1C [compound 128, cyclo(FLac-NMeA-PyrimAla-NleF-Phe2F-NleF-NMeF-amBCP)] (cyclo([NMeA][Ala(pyrimidin-5-yl)][X17][Phe(2-F)][X17][NMeF][X1][PhLac])) | 37.4
16 | CCCCC[C@@H]1NC(=O)[C@H](Cc2ccc(OC)cc2)NC(=O)[C@H](CC2CCCC2)NC(=O)[C@H](Cc2ccc(NC(=N)N)cc2)NC(=O)[C@H](CCCNC(=N)N)NC(=O)[C@H](Cc2ccccc2)NC(=O)CSC[C@@](C)(C(N)=O)NC(=O)[C@H](Cc2ccccc2)N(C)C1=O [compound 366, cyclo(F-R-Phe4Gn-cPeA-TyrOMe-Ahp-NMeF-aMeCl-ClAc)] ({CH2CO}-FR[Phe(4-guanidino)][Ala(cPent)]Y(Me)[Ahp(2)][NMeF][αMeC]-NH2; thioether N-8) | 4.01
17 | CCCC[C@@H]1NC(=O)[C@H](Cc2ccccc2F)NC(=O)[C@H](CCCF)NC(=O)[C@H](Cc2cccnc2)NC(=O)[C@H](C)N(C)C(=O)[C@H](Cc2ccccc2)OC(=O)C23CC(CNC(=O)[C@H](Cc4cccnc4)N(C)C1=O)(C2)C3 [compound 120, cyclo(FLac-NMeA-3Pal-NvaF-Phe2F-Nle-NMe3Pal-amBCP)] (cyclo([3Pal][X4][Phe(2-F)][Nle][NMe3Pal][X1][PhLac][NMeA])) | 35.1
18 | CCCCC[C@@H]1NC(=O)[C@H](Cc2ccc(OC)cc2)NC(=O)[C@H](CC2CCC2)NC(=O)[C@H](Cc2cncnc2)NC(=O)[C@H](CCCNC)N(C)C(=O)[C@H](Cc2ccccc2)NC(=O)CSC[C@@](C)(C(N)=O)NC(=O)[C@H](Cc2ccc(C)nc2)N(C)C1=O [compound 394, cyclo(F-NMeOmMe-PyrimAla-cBuA-TyrOMe-Ahp-NMe3Pal4Me-aMeCl-ClAc)] ({CH2CO}-F[NMeOrn(Me)][Ala(pyrimidin-5-yl)][Cba]Y(Me)[Ahp(2)][NMe3Pal(6-Me)][αMeC]-NH2; thioether N-8) | 65.8
19 | C[C@H]1C(=O)N[C@@H](Cc2cncnc2)C(=O)N[C@@H](CC2CC2)C(=O)N[C@@H](Cc2ccccc2F)C(=O)N[C@@H](CCC(C)(F)F)C(=O)N(C)[C@@H](Cc2ccccc2)C(=O)NCC23CC(C2)(C3)C(=O)C[C@@H](Cc2ccccc2)C(=O)N1C [compound 290, cyclo(CPhe-NMeA~PyrimAla-cPrA-Phe2F-Nle3F2-NMeF-amBCP)] (cyclo([Ala(cPr)][Phe(2-F)][Nle(5,5-F2)][NMeF][X34][NMeA][Ala(pyrimidin-5-yl)])) | 2
